What was measured:
Experiment in all cases: SRB assay, IMT combined with inhibitor
Type in all cases: cell-based
HEPG2 = HEPG2 (liver); concentration series of the labelled inhibitor + fixed concentration of IMT (3S)-1-[(2R)-2-[4-(2-chloro-4-fluoro-phenyl)-2-oxo-chromen-7-yl]oxypropanoyl]piperidine-3-carboxylic acid (Table 3: 40 nM, 120 h); negative=synergistic, positive=antagonistic
How it was run: (§1)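 Fixed 40 nM (3S)-1-[(2R)-2-[4-(2-chloro-4-fluoro-phenyl)-2-oxo-chromen-7-yl]oxypropanoyl]piperidine-3-carboxylic acid was co-dosed with serially diluted MAPK SOC inhibitors for 120 h. Growth read by SRB; 5 mM glucose, at least duplicate independent runs.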

GRANTA-519 = GRANTA-519 (hematological); concentration series of the labelled inhibitor + fixed concentration of IMT (3S)-1-[(2R)-2-[4-(2-chloro-4-fluoro-phenyl)-2-oxo-chromen-7-yl]oxypropanoyl]piperidine-3-carboxylic acid (Table 3: 40 nM, 120 h); negative=synergistic, positive=antagonistic
How it was run: as §1

MHHES1 = MHHES1 (bone); concentration series of the labelled inhibitor + fixed concentration of IMT (3S)-1-[(2R)-2-[4-(2-chloro-4-fluoro-phenyl)-2-oxo-chromen-7-yl]oxypropanoyl]piperidine-3-carboxylic acid (Table 3: 40 nM, 120 h); negative=synergistic, positive=antagonistic
How it was run: as §1

CALU6 = CALU6 (lung); concentration series of the labelled inhibitor + fixed concentration of IMT (3S)-1-[(2R)-2-[4-(2-chloro-4-fluoro-phenyl)-2-oxo-chromen-7-yl]oxypropanoyl]piperidine-3-carboxylic acid (Table 3: 40 nM, 120 h); negative=synergistic, positive=antagonistic
How it was run: as §1

NCIH460 = NCIH460 (lung); concentration series of the labelled inhibitor + fixed concentration of IMT (3S)-1-[(2R)-2-[4-(2-chloro-4-fluoro-phenyl)-2-oxo-chromen-7-yl]oxypropanoyl]piperidine-3-carboxylic acid (Table 3: 40 nM, 120 h); negative=synergistic, positive=antagonistic
How it was run: as §1

U87MG = U87MG (brain); concentration series of the labelled inhibitor + fixed concentration of IMT (3S)-1-[(2R)-2-[4-(2-chloro-4-fluoro-phenyl)-2-oxo-chromen-7-yl]oxypropanoyl]piperidine-3-carboxylic acid (Table 3: 40 nM, 120 h); negative=synergistic, positive=antagonistic
How it was run: as §1

A673 = A673 (muscle); concentration series of the labelled inhibitor + fixed concentration of IMT (3S)-1-[(2R)-2-[4-(2-chloro-4-fluoro-phenyl)-2-oxo-chromen-7-yl]oxypropanoyl]piperidine-3-carboxylic acid (Table 3: 40 nM, 120 h); negative=synergistic, positive=antagonistic
How it was run: as §1

A549 = A549 (lung); concentration series of the labelled inhibitor + fixed concentration of IMT (3S)-1-[(2R)-2-[4-(2-chloro-4-fluoro-phenyl)-2-oxo-chromen-7-yl]oxypropanoyl]piperidine-3-carboxylic acid (Table 3: 40 nM, 120 h); negative=synergistic, positive=antagonistic
How it was run: as §1

PANC1 = PANC1 (pancreas); concentration series of the labelled inhibitor + fixed concentration of IMT (3S)-1-[(2R)-2-[4-(2-chloro-4-fluoro-phenyl)-2-oxo-chromen-7-yl]oxypropanoyl]piperidine-3-carboxylic acid (Table 3: 40 nM, 120 h); negative=synergistic, positive=antagonistic
How it was run: as §1

HCT116 = HCT116 (colon); concentration series of the labelled inhibitor + fixed concentration of IMT (3S)-1-[(2R)-2-[4-(2-chloro-4-fluoro-phenyl)-2-oxo-chromen-7-yl]oxypropanoyl]piperidine-3-carboxylic acid (Table 3: 40 nM, 120 h); negative=synergistic, positive=antagonistic
How it was run: as §1

SKOV3 = SKOV3 (ovary); concentration series of the labelled inhibitor + fixed concentration of IMT (3S)-1-[(2R)-2-[4-(2-chloro-4-fluoro-phenyl)-2-oxo-chromen-7-yl]oxypropanoyl]piperidine-3-carboxylic acid (Table 3: 40 nM, 120 h); negative=synergistic, positive=antagonistic
How it was run: as §1

MIAPACA2 = MIAPACA2 (pancreas); concentration series of the labelled inhibitor + fixed concentration of IMT (3S)-1-[(2R)-2-[4-(2-chloro-4-fluoro-phenyl)-2-oxo-chromen-7-yl]oxypropanoyl]piperidine-3-carboxylic acid (Table 3: 40 nM, 120 h); negative=synergistic, positive=antagonistic
How it was run: as §1

U2OS = U2OS (bone); concentration series of the labelled inhibitor + fixed concentration of IMT (3S)-1-[(2R)-2-[4-(2-chloro-4-fluoro-phenyl)-2-oxo-chromen-7-yl]oxypropanoyl]piperidine-3-carboxylic acid (Table 3: 40 nM, 120 h); negative=synergistic, positive=antagonistic
How it was run: as §1

LOVO = LOVO (colon); concentration series of the labelled inhibitor + fixed concentration of IMT (3S)-1-[(2R)-2-[4-(2-chloro-4-fluoro-phenyl)-2-oxo-chromen-7-yl]oxypropanoyl]piperidine-3-carboxylic acid (Table 3: 40 nM, 120 h); negative=synergistic, positive=antagonistic
How it was run: as §1

A375 = A375 (skin); concentration series of the labelled inhibitor + fixed concentration of IMT (3S)-1-[(2R)-2-[4-(2-chloro-4-fluoro-phenyl)-2-oxo-chromen-7-yl]oxypropanoyl]piperidine-3-carboxylic acid (Table 3: 40 nM, 120 h); negative=synergistic, positive=antagonistic
How it was run: as §1

O=C(c1ccc(F)c(F)c1Nc1ccc(I)cc1F)N1CC(O)([C@@H]2CCCCN2)C1 [Cobimetinib]
difference between the calculated combinatorial index (BLISS) and the observed combinatorial effect (HEPG2): −0.0133 | difference between the calculated combinatorial index (BLISS) and the observed combinatorial effect (GRANTA-519): −0.0008 | difference between the calculated combinatorial index (BLISS) and the observed combinatorial effect (MHHES1): −0.0055 | difference between the calculated combinatorial index (BLISS) and the observed combinatorial effect (CALU6): 0.0286 | difference between the calculated combinatorial index (BLISS) and the observed combinatorial effect (NCIH460): −0.0338 | difference between the calculated combinatorial index (BLISS) and the observed combinatorial effect (U87MG): 0.0347 | difference between the calculated combinatorial index (BLISS) and the observed combinatorial effect (A673): 0.0185 | difference between the calculated combinatorial index (BLISS) and the observed combinatorial effect (A549): −0.0490 | difference between the calculated combinatorial index (BLISS) and the observed combinatorial effect (PANC1): 0.0747 | difference between the calculated combinatorial index (BLISS) and the observed combinatorial effect (HCT116): −0.0279 | difference between the calculated combinatorial index (BLISS) and the observed combinatorial effect (SKOV3): 0.0499 | difference between the calculated combinatorial index (BLISS) and the observed combinatorial effect (MIAPACA2): −0.0673 | difference between the calculated combinatorial index (BLISS) and the observed combinatorial effect (U2OS): −0.0663 | difference between the calculated combinatorial index (BLISS) and the observed combinatorial effect (LOVO): −0.0754 | difference between the calculated combinatorial index (BLISS) and the observed combinatorial effect (A375): 0.0443

Cn1cnc2c(F)c(Nc3ccc(Br)cc3Cl)c(C(=O)NOCCO)cc21 [Selumetinib]
difference between the calculated combinatorial index (BLISS) and the observed combinatorial effect (HEPG2): 0.0032 | difference between the calculated combinatorial index (BLISS) and the observed combinatorial effect (GRANTA-519): 0.0050 | difference between the calculated combinatorial index (BLISS) and the observed combinatorial effect (MHHES1): 0.0218 | difference between the calculated combinatorial index (BLISS) and the observed combinatorial effect (CALU6): 0.0376 | difference between the calculated combinatorial index (BLISS) and the observed combinatorial effect (NCIH460): −0.0276 | difference between the calculated combinatorial index (BLISS) and the observed combinatorial effect (U87MG): 0.0486 | difference between the calculated combinatorial index (BLISS) and the observed combinatorial effect (A673): 0.0313 | difference between the calculated combinatorial index (BLISS) and the observed combinatorial effect (A549): −0.0519 | difference between the calculated combinatorial index (BLISS) and the observed combinatorial effect (PANC1): 0.0867 | difference between the calculated combinatorial index (BLISS) and the observed combinatorial effect (HCT116): −0.0774 | difference between the calculated combinatorial index (BLISS) and the observed combinatorial effect (SKOV3): 0.0622 | difference between the calculated combinatorial index (BLISS) and the observed combinatorial effect (MIAPACA2): −0.0734 | difference between the calculated combinatorial index (BLISS) and the observed combinatorial effect (U2OS): −0.1010 | difference between the calculated combinatorial index (BLISS) and the observed combinatorial effect (LOVO): −0.0877 | difference between the calculated combinatorial index (BLISS) and the observed combinatorial effect (A375): 0.0423

CC(=O)Nc1cccc(-n2c(=O)n(C3CC3)c(=O)c3c(Nc4ccc(I)cc4F)n(C)c(=O)c(C)c32)c1 [Trametinib]
difference between the calculated combinatorial index (BLISS) and the observed combinatorial effect (HEPG2): 0.0351 | difference between the calculated combinatorial index (BLISS) and the observed combinatorial effect (GRANTA-519): −0.0185 | difference between the calculated combinatorial index (BLISS) and the observed combinatorial effect (MHHES1): 0.0760 | difference between the calculated combinatorial index (BLISS) and the observed combinatorial effect (CALU6): −0.0308 | difference between the calculated combinatorial index (BLISS) and the observed combinatorial effect (NCIH460): 0.0180 | difference between the calculated combinatorial index (BLISS) and the observed combinatorial effect (U87MG): 0.0578 | difference between the calculated combinatorial index (BLISS) and the observed combinatorial effect (A673): 0.0225 | difference between the calculated combinatorial index (BLISS) and the observed combinatorial effect (A549): −0.0142 | difference between the calculated combinatorial index (BLISS) and the observed combinatorial effect (PANC1): 0.0596 | difference between the calculated combinatorial index (BLISS) and the observed combinatorial effect (HCT116): −0.0027 | difference between the calculated combinatorial index (BLISS) and the observed combinatorial effect (SKOV3): −0.0444 | difference between the calculated combinatorial index (BLISS) and the observed combinatorial effect (MIAPACA2): 0.1602 | difference between the calculated combinatorial index (BLISS) and the observed combinatorial effect (U2OS): −0.0358 | difference between the calculated combinatorial index (BLISS) and the observed combinatorial effect (LOVO): −0.0287 | difference between the calculated combinatorial index (BLISS) and the observed combinatorial effect (A375): 0.0510

Cc1cc(C(=O)NOCCO)c(Nc2ccc(I)cc2F)n(C)c1=O [AZD8330, 2-((2-Fluoro-4-iodophenyl)amino)-N-(2-hydroxyethoxy)-1,5-dimethyl-6-oxo-1,6-dihydropyridine-3-carboxamide]
difference between the calculated combinatorial index (BLISS) and the observed combinatorial effect (HEPG2): 0.0270 | difference between the calculated combinatorial index (BLISS) and the observed combinatorial effect (GRANTA-519): −0.0506 | difference between the calculated combinatorial index (BLISS) and the observed combinatorial effect (MHHES1): 0.0682 | difference between the calculated combinatorial index (BLISS) and the observed combinatorial effect (CALU6): −0.0116 | difference between the calculated combinatorial index (BLISS) and the observed combinatorial effect (NCIH460): 0.0015 | difference between the calculated combinatorial index (BLISS) and the observed combinatorial effect (U87MG): 0.0579 | difference between the calculated combinatorial index (BLISS) and the observed combinatorial effect (A673): −0.0047 | difference between the calculated combinatorial index (BLISS) and the observed combinatorial effect (A549): −0.0341 | difference between the calculated combinatorial index (BLISS) and the observed combinatorial effect (PANC1): 0.0157 | difference between the calculated combinatorial index (BLISS) and the observed combinatorial effect (HCT116): −0.0196 | difference between the calculated combinatorial index (BLISS) and the observed combinatorial effect (SKOV3): −0.0609 | difference between the calculated combinatorial index (BLISS) and the observed combinatorial effect (MIAPACA2): 0.1347 | difference between the calculated combinatorial index (BLISS) and the observed combinatorial effect (U2OS): −0.0171 | difference between the calculated combinatorial index (BLISS) and the observed combinatorial effect (LOVO): 0.0047 | difference between the calculated combinatorial index (BLISS) and the observed combinatorial effect (A375): 0.0451

O=C(c1cc(Cc2n[nH]c(=O)c3ccccc23)ccc1F)N1CCN(C(=O)C2CC2)CC1 [Olaparib]
difference between the calculated combinatorial index (BLISS) and the observed combinatorial effect (HEPG2): −0.0439 | difference between the calculated combinatorial index (BLISS) and the observed combinatorial effect (GRANTA-519): −0.0088 | difference between the calculated combinatorial index (BLISS) and the observed combinatorial effect (MHHES1): 0.0269 | difference between the calculated combinatorial index (BLISS) and the observed combinatorial effect (CALU6): 0.0400 | difference between the calculated combinatorial index (BLISS) and the observed combinatorial effect (NCIH460): −0.0377 | difference between the calculated combinatorial index (BLISS) and the observed combinatorial effect (U87MG): 0.0523 | difference between the calculated combinatorial index (BLISS) and the observed combinatorial effect (A673): 0.0334 | difference between the calculated combinatorial index (BLISS) and the observed combinatorial effect (A549): 0.0174 | difference between the calculated combinatorial index (BLISS) and the observed combinatorial effect (PANC1): −0.0430 | difference between the calculated combinatorial index (BLISS) and the observed combinatorial effect (HCT116): −0.0690 | difference between the calculated combinatorial index (BLISS) and the observed combinatorial effect (SKOV3): 0.0092 | difference between the calculated combinatorial index (BLISS) and the observed combinatorial effect (MIAPACA2): 0.0529 | difference between the calculated combinatorial index (BLISS) and the observed combinatorial effect (U2OS): −0.0034 | difference between the calculated combinatorial index (BLISS) and the observed combinatorial effect (LOVO): −0.0819 | difference between the calculated combinatorial index (BLISS) and the observed combinatorial effect (A375): −0.0650
